Where two headings read alike, the source gives them in different places. One block for each molecule: values may come before it. Where a SMILES comes first, the peptide text is derived from it. Bridges are numbered along the chain shown (N, C = ends).
Columns and labels:
[1] = target: T1, mouse CCK2R (Mus musculus, UniProt P56481); assay: Inositol-1-phosphate (IP1) accumulation assay (HTRF) in HEK293 cells transiently expressing CCK2R; settings: for IP1 formation (fold difference over baseline): positive control, n = 3-4; for Emax: HEK293, read-out: Maximum efficacy (Emax) at the CCK2R; for Antagonism of CCK-8-induced IP1 formation: antagonist 500 nM, preincubated 30 min at 37 °C, CCK-8 10 nM, Fig. S1b, n = 3-5
T1 sequence (P56481 1-453): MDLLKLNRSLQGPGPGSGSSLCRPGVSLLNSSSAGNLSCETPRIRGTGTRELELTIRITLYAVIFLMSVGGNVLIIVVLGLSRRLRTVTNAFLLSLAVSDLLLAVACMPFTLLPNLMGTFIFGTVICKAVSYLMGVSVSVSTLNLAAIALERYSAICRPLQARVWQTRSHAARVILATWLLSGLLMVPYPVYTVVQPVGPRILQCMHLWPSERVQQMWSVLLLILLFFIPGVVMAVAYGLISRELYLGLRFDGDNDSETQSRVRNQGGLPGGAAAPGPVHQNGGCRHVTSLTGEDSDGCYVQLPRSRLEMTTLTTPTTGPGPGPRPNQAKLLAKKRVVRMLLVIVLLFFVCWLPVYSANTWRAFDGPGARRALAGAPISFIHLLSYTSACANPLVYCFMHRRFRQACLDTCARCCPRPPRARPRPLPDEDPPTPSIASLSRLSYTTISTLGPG
Protocol: Human embryonic kidney (HEK293) cells (Ref.[31]) were maintained in a fresh Dulbecco’s modified Eagle’s medium supplemented with 10% fetal bovine serum, 100 U/mL penicillin, and 100 µg/mL streptomycin in a humidified atmosphere of 5% CO2 at 37 °C. 2 mL of cell suspension was poured into each well of a 6-well plate and incubated overnight at 37 °C. After reaching to a confluency of 70–80%, the cells were transfected with a plasmid encoding EGFP-tagged CCK2R using the jetPRIME transfection reagent according to manufacturer’s instructions (Polyplus-transfection, USA).
The receptor-mediated activation of Gq-dependent signaling was measured using a homogenous time-resolved fluorescence (HTRF) based inositol-1-phosphate (IP1) assay kit (Cisbio, France). Approximately 3-6 × 10^4 HEK293 cells expressing the CCK2R were seeded into each well of a 96- or 384-well plate and incubated overnight at 37 °C. […] Antagonists YM-022 and LY225910 (500 nM or 1 µM, both Sigma -Aldrich, Austria) were preincubated at 37 °C for 30 min. After adding IP1-d2 conjugate and anti-IP1 Eu Cryptate according to manufacturers’ instructions, the plate was incubated at room temperature for 3 h. The HTRF measurement was carried out using the FlexStation 3 multi-mode microplate reader with excitation at 330 nm and emissions at 620 and 665 nm.
All experiments were performed in triplicate, analyzed using the GraphPad prism software (GraphPad Software, USA) and expressed as mean ± SD (standard deviation). Pharmacological data of concentration response curves were normalized to the maximal response of CCK-8 detected at the highest concentration. […] Single concentration efficacy data were normalized to baseline (assay buffer) and data were expressed as IP1 formation (fold difference over baseline).

[2] = test system: HEK293 cells; assay: Cell viability assay (Cell Counting Kit-8); settings: 2 h incubation
Protocol: Effect on cell viability of plant extract was measured against the HEK293 cell line using the Cell Counting Kit-8 (VitaScientific, USA). Briefly, 100 µL of medium containing 1 × 10^4 cells was seeded in each well of a 96-well plate and incubated at 37 °C for 24 h. […] Finally, 10 µL of the kit reagent (final concentration of 10%, v/v) was added into each well and incubated at 37 °C for 3 h. Absorbance was measured at 450 nm using the FlexStation 3 multi-mode microplate reader (Molecular Devices, USA). Triton X-100 and medium were used as positive and negative controls, respectively. The cell viability (CV) percentage was calculated using the following equation: CV (%) = (AS/AC) × 100, whereas AS and AC are related to the absorbance of sample and negative control at 450 nm.

[3] = target: T2, mouse cholecystokinin-2 receptor, EGFP-tagged (mouse) (UniProt P56481)
T2 sequence: T1 sequence (P56481 1-453)

[4] = target: T2, mouse cholecystokinin-2 receptor, EGFP-tagged (mouse); remark: listed apart in the source

cholecystokinin-8, sequence (P06307 whole entry, looked up): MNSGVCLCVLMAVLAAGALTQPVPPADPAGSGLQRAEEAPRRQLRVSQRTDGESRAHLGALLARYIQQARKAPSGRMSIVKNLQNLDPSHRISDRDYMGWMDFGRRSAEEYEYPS

Molecule: CSCC[C@H](NC(=O)[C@H](Cc1ccc(OS(=O)(=O)O)cc1)NC(=O)[C@@H](N)CC(=O)O)C(=O)NCC(=O)N[C@@H](Cc1c[nH]c2ccccc12)C(=O)N[C@@H](CCSC)C(=O)N[C@@H](CC(=O)O)C(=O)N[C@@H](Cc1ccccc1)C(N)=O [CCK-8, cholecystokinin-8]
- IP1 formation (fold difference over baseline) ([1]; CCK-8 at 1 nM): 0.09 fold difference over baseline
- IP1 formation (fold difference over baseline) ([1]; CCK-8 at 3 nM): 0.31 fold difference over baseline
- EC50 ([1]; EC50 of CCK-8 alone, CCK-8 alone, Fig. 5b experiment, n = 3): 12.9 nM
- Emax [1]: 100%
- EC50 ([1]; SD): 11.5 ± 1.5 nM

Molecule: CC(C)Oc1cccc(-n2c(CCc3c[nH]c4ccc(Br)cc34)nc3ccccc3c2=O)c1 [LY225910]
- Antagonism of CCK-8-induced IP1 formation [1]: did not displace the effects of endogenous ligand CCK-8

Molecule: Cc1cccc(NC(=O)N[C@@H]2N=C(c3ccccc3)c3ccccc3N(CC(=O)c3ccccc3C)C2=O)c1 [YM-022, (R)-1-[2,3-dihydro-1-(2'-methylphenacyl)-2-oxo-5-phenyl-1H-1,4-benzodiazepin-3-yl]-3-(3-methylphenyl) urea]
- Antagonism of CCK-8-induced IP1 formation [1]: significant inhibition of the IP1 formation

Molecule: CC[C@H](C)[C@@H]1NC(=O)[C@@H]2CSSC[C@@H]3NC(=O)[C@H](C(C)C)NC(=O)[C@H](CCCCN)NC(=O)[C@H](CCCCN)NC(=O)[C@H](CCCCN)NC(=O)[C@@H]4CSSC[C@H](NC(=O)[C@H](CO)NC(=O)[C@H](CCC(=O)O)NC(=O)CNC(=O)[C@H](CSSC[C@H](NC(=O)CNC(=O)[C@H]([C@@H](C)CC)NC(=O)[C@H](C(C)C)NC(=O)[C@H]([C@@H](C)O)NC(=O)[C@H](CO)NC1=O)C(=O)N[C@@H](CO)C(=O)N4)NC(=O)[C@@H]1CCCN1C(=O)[C@H]([C@@H](C)CC)NC(=O)[C@H](C(C)C)NC(=O)CNC(=O)[C@H](CC(N)=O)NC(=O)[C@H](CCCNC(=N)N)NC(=O)[C@H](Cc1ccc(O)cc1)NC3=O)C(=O)N[C@@H](C(C)C)C(=O)N[C@@H](Cc1ccccc1)C(=O)N[C@@H]([C@@H](C)CC)C(=O)N1CCC[C@H]1C(=O)N2 [caripe 11] (cyclo(CGESCVFIPCISTVIGCSCKKKVCYRNGVIP); disulfide 1-17, 5-19, 10-24)
- Effect on HEK cell viability ([2]; caripe 11 100 µM): slightly decreased HEK cell viability
- Effect on HEK cell viability ([2]; caripe 11 ≤ 30 µM): did not have a pronounced effect
- Emax ([1]; SD): 71 ± 6.9%
- EC50 ([1]; SD): 8500 ± 1700 nM
- Reduction of the EC80 effect of CCK-8 ([1]; caripe 11 30 µM co-incubated with CCK-8 70 nM (EC80), Fig. S1a, n = 2): ~ 20%
- Basal activity of the CCK-8 concentration-response curve upon co-treatment ([1]; co-treatment with caripe 11 10 µM, increased from 0, Fig. 5b, n = 3): 17%

- EC50 of IP1 accumulation, CCK-8 alone (control curve of the co-treatment experiment, Fig. 5b) [3]: 12.9 nM
Molecule: cholecystokinin-8 (from UniProt P06307 96-103) (peptide)

- EC50 of IP1 accumulation (HTRF) in HEK293 cells transiently expressing CCK2R [4]: 8500 nM
- Emax of IP1 accumulation, normalised to the maximal response of CCK-8 [4]: 71%
- reduction of the IP1 effect of 70 nM (EC80) CCK-8 by co-incubated caripe 11 (3, 10, 30 µM); value at 30 µM [3]: 20%
Molecule: cyclo(GVIPCGESCVFIPCISTVIGCSCKKKVCYRN) (also: three disulfide bonds, pairing not given here) [caripe 11]
